According to paper PMC6902048, “UGT85A84 Catalyzes the Glycosylation of Aromatic Monoterpenes in Osmanthus fragrans Lour. Flowers” (Frontiers in Plant Science, 2019):
Where “and” joins values, the source holds several entries; their conditions need not be identical. Equal values may be shown once. One block for each compound: values may come before it.

How the values were obtained:
CsGT1 = system: CsGT1; design: method as in Shoji et al., 2015; conditions: geraniol = 100%; ref Shoji et al., 2015; cited from earlier work
UGTs from Vitis vinifera = system: UGTs from Vitis vinifera; design: method as in Friedericke et al., 2014a; Friedericke et al., 2014b; conditions: several Vitis vinifera UGTs, enzymes not named, ref Friedericke et al., 2014a, 2014b; cited from earlier work
[1] = system: UGTs from Camellia sinensis; design: method as in Shoji et al., 2015; conditions: enzymes not named, ref Shoji et al., 2015; cited from earlier work
[2] = system: UGTs from Actinidia deliciosa; design: method as in Yar-Khing et al., 2014; conditions: Actinidia deliciosa UGT; ref Yar-Khing et al., 2014; cited from earlier work
UGT85A84 [3] = test: OfUGT85A84 enzyme assay with purified recombinant protein (LC-MS, Michaelis-Menten fitting); type: biochemical, Osmanthus fragrans; conditions: for Glycosylated products formed with the sugar donor (LC-MS): 0.5 mM sugar donor with 0.5 mM linalool or linalool oxide, 1 h or 16 h incubation at 37°C
Method: The full-length UGT85A84 ORF was amplified and cloned into the pET21b and pET15b expression vectors (Novagen) using the primers listed in Table S2 . The two plasmids were co-transformed into Escherichia. coli BL21 (DE3) pLysS cells (Promega, Madison, WI, USA). The co-transformed cells were cultured in lysogeny broth medium supplemented with 100 µg/ml ampicillin at 37°C until OD600 approached 1.0–1.2. The temperature was then shifted to 16°C, and the cells were incubated with 0.2 mM isopropyl β-D-1-thiogalactopyranoside for 16 h. Subsequently, the cells were harvested by centrifugation, resuspended in lysis buffer (pH 8.0) containing 25 mM Tris-HCl and 150 mM NaCl and lysed by a JN-02 homogenizer. […] The eluted protein was further purified by anion-exchange chromatography (Source 15Q 10/100, GE Healthcare) with a linear NaCl gradient in the buffer (pH 8.0) containing 25mM Tris-HCl, 1M NaCl, and 2mM dithiothreitol. Then, the elution peak was concentrated to 1 ml and subjected to size-exclusion chromatography (Superdex-200 Increase 10/300, GE Healthcare) in the buffer (pH 8.0) containing 25mM Tris-HCl, 150mM NaCl, and 5mM dithiothreitol (DTT). The purity of the protein was analyzed by sodium dodecyl sulfate polyacrylamide gel electrophoresis (SDS-PAGE) and the protein was quantified using a NanoDrop 2000 spectrophotometer (Thermo Scientific, USA). Enzymatic activity assays were carried out according to the description by [Shoji et al. (2015)] with modification. […] After incubation of the mixture at 37°C for 16 h, the reaction was terminated by the addition of 1 µl of 24% trichloroacetic acid (TCA). Except for the concentrations of substrates, the same assay conditions were used for measuring the UGT85A84 kinetic parameters. […] All the reactions were incubated at 37°C for 1 h and repeated in triplicate. The reaction products were subjected to LC-MS analysis. The apparent K m and k cat values for each aglycone and sugar donor were determined by Michaelis-Menten fitting in OriginPro 9.1 software. LC-MS analysis was performed in the Thermo Scientific™ UltiMate™ 3000RS system. The separation was conducted on a Thermo Scientific™ Syncronis C18 column (100*2.1 mm, 1.7µm) at 40°C. Mobile phases consisted of phase A referring to water with 0.1% formic acid and phase B referring to methanol with 0.1% formic acid. […] The samples were eluted with the following linear gradient: 0–1min, 2% B; 1–5min, 2-95% B; 5–7min, 95% B; 7–7.1, 95–2% B; 7.1–9, 2% B. The MS analysis was performed on a Thermo Scientific™ Q Exactive Plus hybrid quadrupole-Orbitrap benchtop high-resolution mass spectrometer equipped with heated electrospray ionization. […] Identification of target compounds was carried out using Data-Dependent Acquisition (DDA). The HCD collision energy was set at NCE 20 for negative mode and was set at NCE 30 50 80 for positive mode. Quantification was performed in the full scan negative mode.

UGT85A84 [4] = test: Transient over-expression of OfUGTs in Nicotiana benthamiana leaves with aglycone infiltration, glycosides by GC-MS; type: in vivo, Osmanthus fragrans; conditions: N. benthamiana leaves, 50 µM linalool and 200 µM linalool oxides infiltrated, 4 h; GC-MS after β-glucosidase
Method: Transient expression experiments with Nicotiana benthamiana leaves were performed as described by [Zeng et al. (2016)]. […] Five days after the inoculation, the leaves were infiltrated with different aglycone solutions (50 µM linalool and 200 µM linalool oxides in 0.5 M MES + 1 M MgCl2). Four hours after infiltration, the leaves were detached and frozen at –80°C for glycoside determination ([Yar-Khing et al., 2014]). Glycoside extraction coupled with GC-MS was performed to quantify the glycoside contents according to the previously described methods ([Zheng et al., 2017]).
The experiments of transient over-expression coupled with the substrate injection in N. benthamiana leaves were conducted to investigate the glycosides produced by candidate OfUGTs in planta. The leaves were infiltrated with Super1300-OfUGT or a control construct in the presence of linalool and its oxides. The glycosides were then extracted and purified after incubation. Subsequently, GC-MS analysis calculated the glycoside contents by quantifying the corresponding aglycones released from the glycosides.
The N. benthamiana leaves were infiltrated with a control construct (S1300-GUS) or S1300-OfUGTs in the presence of linalool and its oxides. […] Different letters indicate significant difference as determined by one-way ANOVA followed by LSD t-test (P 0.05).

PpUGT85A2 = system: PpUGT85A2; design: method as in Wu et al., 2018; conditions: Prunus persica UGT; ref Wu et al., 2018; cited from earlier work
[5] = aglycone as varied substrate, fixed UDP-Glc 0.5 mM
[6] = aglycone as varied substrate, fixed UDP-Glc 0.5 mM, 37°C, 1 h

Compound: OCCc1ccccc1 [2-PE, 2-phenylethanol]
Relative activity of CsGT1 towards substrate (CsGT1): 9.2%

Compound: C=CC(C)(O)CC/C=C(\C)CO (stereo not drawn) [8-Hydroxylinalool]
Km (UGTs from Vitis vinifera): 33 ± 1.8 µM

Compound: CC/C=C\CCO [(Z)-3-hexenol]
Relative activity of CsGT1 towards substrate (CsGT1): 62%

Compound: CC(C)=CCCC(C)CCO (stereo not drawn) [Citronellol]
Km (UGTs from Vitis vinifera): 433 µM and 306 µM and 445 µM

Compound: CC(C)=CCC/C(C)=C/CO[C@@H]1O[C@H](CO)[C@@H](O)[C@H](O)[C@H]1O [Geranyl β-D-glucopyranoside]
Km [1]: 78.1 ± 19.6 µM

Compound: CCCCCCO [Hexanol]
Km [2]: 117 ± 28.1 µM

Compound: CCCCCC(O)CC (stereo not drawn) [Octan-3-ol]
Km [2]: 66.6 ± 16.2 µM

Compound: CC(C)=CCC[C@H](C)CCO [S-Citronellol]
Km (UGTs from Vitis vinifera): 55 ± 1.3 µM

Glycosylated products formed with the sugar donor (LC-MS) (UGT85A84 [3]): No products were detected
Compound: C[C@@H]1O[C@H](OP(=O)(O)OP(=O)(O)OC[C@H]2O[C@@H](n3ccc(=O)[nH]c3=O)[C@H](O)[C@@H]2O)[C@H](O)[C@H](O)[C@H]1O [UDP-Rha, UDP-rhamnose]

Glycosylated products formed with the sugar donor (LC-MS) (UGT85A84 [3]): No products were detected
Compound: O=c1ccn([C@@H]2O[C@H](COP(=O)(O)OP(=O)(O)O[C@H]3OC[C@@H](O)[C@H](O)[C@H]3O)[C@@H](O)[C@H]2O)c(=O)[nH]1 [UDP-Xyl, UDP-xylose]

Compound: OCc1ccccc1 [benzyl alcohol]
Relative activity of CsGT1 towards substrate (CsGT1): 48%

Compound: C=CCc1ccc(O)c(OC)c1 [eugenol]
Relative activity of CsGT1 towards substrate (CsGT1): 84%

Compound: CC(C)=CCC/C(C)=C/CO [geraniol]
Relative activity of CsGT1 towards substrate (CsGT1): 100%
Km [1]: 44.2 ± 3 µM
Km [2]: 76.2 ± 11.1 µM

k cat/K m (UGT85A84 [3]; [5]): 1.0494e+07 M⁻¹ s⁻¹
k cat (UGT85A84 [3]; [6]): 2.12 S ^-1
Compound: C=CC1(C)CCC(C(C)(C)O)O1 (stereo not drawn) [linalool oxide]
Glycoside of the injected aglycone in UGT85A84-infiltrated leaves versus control (UGT85A84 [4]): remarkable increase

k cat/K m (UGT85A84 [3]; [5]): 718000 M⁻¹ s⁻¹
k cat (UGT85A84 [3]; [6]): 0.09 S ^-1
Km (UGT85A84 [3]; aglycone as varied substrate, fixed UDP-Glc 0.5 mM, 37°C, 1 h, mean and SEM, n = 3): 136 µM
Compound: C=CC(C)(O)CCC=C(C)C (stereo not drawn) [linalool]
Relative activity of CsGT1 towards substrate (CsGT1): 1.4%
Km (PpUGT85A2): 463 ± 80 µM
Glycoside of the injected aglycone in UGT85A84-infiltrated leaves versus control (UGT85A84 [4]): no significant increase
